In patent EP2229935A1, “Peptide derivatives or pharmaceutically acceptable salts thereof, method for producing the same, use of said derivatives and pharmaceutical composition” (Nebolsin, Vladimir Evgenievich, priority 1997, dated 1999):
Where two headings read alike, the source gives them in different places. Marks after values point to notes of the source that are not given here.

Legend:
[1] = tested on: Strain Aichi of type A human influenza virus; type: in vivo; details: 100 mg/kg, 24 and 2 hours prior and 3 days post infection
[2] = tested on: hepatic P-450 cytochrome system; assay: Hexenal sleep duration in mice; type: in vivo; details: CBF1 mice; oral 3 days, 50 µg/kg; control 25.91 ± 1.57
Procedure: Change in Hexenal sleep (HS) duration is the in vivo measurable index of hepatic P-450 cytochrome system condition.
Studies were carried out on male mice of the lines BALB/c*h75, C57B1/6, CBA, DBA/2, first generation CBF1 and BDF1 hybrides, with initial mass 18-20 g, each group including 10 mice; and on mongrel male guinea pigs with initial mass 250-300 g, each group including 24 animals. All the test compounds (from II to LII) were administered orally in drinking water and for three days at doses 50 and 500 µg/kg. Hexenal hydrochloride at a dose […] of animal mass was administered 24 hours after the last drug administration, except for line BALB/c*h75 mice, which were administered Hexenal at a dose 60 µg/kg at the same terms, and guinea pigs for which Hexenal dose was 30 µg/kg. HS duration was determined in minutes.

[3] = tested on: mongrel male rats; assay: Hypolipidemic activity: experimental hyperlipidemia (atherogenic load); details: atherogenic diet, oral last four days, 50 µg/kg; for HDL-CS / LDL-CS+ VLDL-CS / Total CS / Triglycerides: blood; for Kcs: cholesterol index;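 for all read-outs here: serum drawn 18 h after the final dose from rats deprived of food over that interval, groups of 10 animals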
Procedure: Hypolipidemic activity of the compounds of general formula (I) was studied on the model of experimental hyperlipidemia [Arichi H., Kumura H.O. Effects of stibens compounds of roots of polygonum cuspidatium on the lipid metabolism. […] Each group of animals included 10 rats. […] Blood samples were taken for analysis 18 hours after the last administration of the test substances during which period food was taken away from rats.
The following parameters were determined: total cholesterol (total CS); high density lipoprotein cholesterol (HDL-CS); low density lipoprotein cholesterol and very low density lipoprotein cholesterol (LDL-CS and VLDL-CS); triglycerides (TG). Blood serum CS level was determined according to the Ilk method [Biochemical examination in the clinic. […] HDL-CS level was measured in supernatant following heparine-manganese precipitation of LDL+VLDL [Titov V.N., Brener E.D., Khaltaiev N.G., Zadoya A.A., Tvorogova M.G. A method and diagnostic significance of cholesterol level study in α-lipoproteins. […] LDL-CS level determination was carried out by calculation according to the formula presented in the work Friedwald W.T. [Friedwald W.T., Levy K.J., Leus R. Fat transport in lipoproteins: an integrated approach to mechanism and disorders.
To assess the effect of the test compounds on the ratio of atherogenic and antiatherogenic blood serum lipoproteins, cholesterol index (Kcs) was calculated according to the formula presented in the work [Klimov A.N., Nikulcheva N.G. Lipoproteins, dylipoproteinemias and atherosclerosis.
Blood serum TG level was determined using the conventional method [Friedwald W.T., Levy R.I., Fredrickson D.S. Estimation of concentration of low-density lipoprotein cholesterol in plasma, without use of preparative ultracentrifuge.

[4] = tested on: mongrel female rats; assay: Hepatoprotective activity: subchronic liver lesion (hepatitis) with CCl4; type: in vivo; details: rats, CCl4 hepatitis
Procedure: Hepatoprotective properties of the compounds were studied on a model of subchronic liver lesion (hepatitis) with carbon quadrichloride.
70 mongrel female rats with initial body mass 190-200 g fed a standard vivarium ration, were used in experiment. Animals were divided into 7 groups (10 rats each): • Group 1 - control one; during the first four days of experiment animals were subcutaneously injected 0.2 ml vaseline oil; • Group 2 - during the first four days animals were subcutaneously injected 50% CCl4 solution in vaseline oil at a rate of 0.1 ml per 100 g body mass; • Group 3 - Legalon in a starch gel was administered orally for 8 days at a dose 30 mg/kg against the background of CCl4 administration; […] , resepectively, was administered in a way similar to group III; […] , resepectively, was administered in a way similar to group III.
The test compounds and Legalon were administered to animals 1 hour prior to CCl4 administration. 24 hours after the last administration of the drugs, animals were decapitated.
Activity of blood serum transaminases ALT and AST was assessed using the conventional Frenkel-Rightman method [Laboratory examination methods in the clinic. Ed. by Menshikov V.V. Moscow, Meditsina publishers (1969), 302 pp.].
The published method [Rodionova L.P. Modification of blood serum trigyceride level determination method. Laboratomoye delo (Laboratory Matter) (1980), No 5, pp. 297-299] was used to determine blood serum TG level.
Blood serum LP final product MDA was determined using the published method [Korobeinikova E.N. Modification of lipid peroxydation product determination in reaction with thiobarbituric acid. Laboratomoye delo (Laboratory Matter) (1989), No 7, pp. 8-10]. Concentration of TBA-active products was calculated using regression equation: C = 0.21 + 0.26D, [formula] where C - concentration of TBA-active products (in nM MDA per 1 ml of serum), D - index D535 -D580 (in optic density units).
Total hepatic lipids were extracted using the modified Folch method [Cates M. Technology of Lipidology. Moscow, Mir publishers (1975), pp. 74-76]. Quantative content of lipid fractions was assessed with thin layer chromatography method (TLC) using the system of solvents hexane:diethyl ether:acetic acid at ratio 80:20:2. Zones of individual lipid fractions were determined using 10% alcohol solution of phosphoromolyobdenic acid which following elution were spectrophotometrically analysed at 600 nm.
Hepatic MDA level was determined using the published method [Stalnaya I.D., Garishvili T.G. Malonic dialdehyde determination method using thiobarbituric acid. In: Modem methods in biochemistry. Moscow, Meditsina publishers (1977), pp. 66-69]. MDA quantity was calculated using molar extinction coefficient value of stained trimethynic complex formed by MDA with two TBA molecules: E = 1.56 × 10^5 (cm)^-1 × M^-1 [formula]

[5] = tested on: Lewis pulmonary carcinoma (LLC); assay: Lewis pulmonary carcinoma growth; type: in vivo; details: mice with LLC, day 12; for Growth inhibition percent: compound in drinking water; for Tumor volume (mm^3): compound in drinking water from 24 hours after transplantation
Procedure: Experiments were carried out on male mice with initial body mass 18-20 g. Each group included 10 animals. […] Administration of compounds II, III, IX, X, XII, XIV, XV, XVI, XVII, XIX, XXII, XLVII in drinking water was commenced 24 hours following transplantation and continued till the end of experiment. Effect of the compounds on Lewis rat pulmonary carcinoma (LLC) was estimated by day 12 of experiment by change in tumor volume expressed in mm^3.

[6] = tested on: hydroxyl radical; assay: Hydroxyl radical formation in the Fenton reagent (chemiluminescence); type: biochemical
Procedure: Active oxygen forms (AOF) of different nature were generated in the following systems: • A. Hydroxyl radical - in the mixture of FeSO4 with H2O2 (the Fenton reagent) [Halliwell B. Superoxide-dependent formation of hydroxyl radicals in the presence of iron salts. […] Incubation medium comprised 5 mM KH2PO4 (pH 7.4); 5 mM FeSO4; 2 mM luminol. H2O2 at final concentration 5 mM was introduced into a cuvette through a dispencer following background luminescence recording of the reagents' mixture. 5 to 10 ml of the test compounds dissolved in water were at needed concentration introduced into a cuvette.
CL flash recording duration after mixing ingredients, depended on a particular process kinetics. For each system, CL light sum (mV) was determined in the control samples without preparations (I-) and in samples comprising respective concentrations of preparations (I+). To estimate CL inhibition (activation) degree, the I+/I- ratio (in relative units) was found in the studied systems.
When H2O2 was introduced into phosphate buffer comprising iron sulfate, CL flash occured which was caused by formation of predominantly hydroxyl radical in the reaction mixture.

[7] = blood serum, oral 8 days 30 mg/kg
[8] = blood serum, oral 8 days, daily dose 30.0 mg/kg

CCOC(=O)c1c(CSc2ccccc2)n(C)c2cc(Br)c(O)c(CN(C)C)c12 [Arbidol]
MLT, days ([1]; series with Control - 2 (9.1)): 13.88*^2 days
Survival rate in percent ([1]; series with Control - 2 (34.5)): 94.7*^2%
Protection degree in percent ([1]; series with Control - 2): 60.2%
MLT, days ([1]; series with control - 1 (5.76)): 9.22* days
Survival rate in percent ([1]; series with control - 1 (16.7)): 43.4* percent
Protection degree in percent ([1]; series with control - 1): 26.7%

Cl.O=C(O)CCCCC(=O)NCCc1c[nH]cn1 [IV, N-ADIPINYLHISTAMINE CHLOROHYDRATE]
Hexenal sleep duration (minutes) [2]: 20.39 ± 1.59* minutes

CC(=O)NC(CC(=O)NCCc1c[nH]cn1)C(=O)O (stereo not drawn) [L, N-Acethyl-β -Aspartylhistamine]
HDL-CS [3]: 31,0±2,1
LDL-CS+ VLDL-CS [3]: 63,1±2,4*^A
Total CS [3]: 94,1±2,1
Triglycerides [3]: 141,6±12,6**^A
Kcs [3]: 2,03±0,09***^A

CC(=O)NC(CC(=O)O)C(=O)NCCc1c[nH]cn1 (stereo not drawn) [LI, N-Acethyl- α-Aspartylhistamine]
HDL-CS [3]: 39,8±1,6**^A
LDL-CS+ VLDL-CS [3]: 59,3±3,5*^A
Total CS [3]: 99,1±4,5
Triglycerides [3]: 132,1±17,4**^A
Kcs [3]: 1,49±0,07***^A

O=C1CC[C@@H](C(=O)NCCc2c[nH]cn2)N1 [LII, Pyroglutamylhistamine]
Hexenal sleep duration [2]: 21.14 ± 1.39 min

COc1cc(C2Oc3cc([C@H]4Oc5cc(O)cc(O)c5C(=O)[C@@H]4O)ccc3OC2CO)ccc1O (some centres unmarked) [Legalon, reference compound]
Cholesterol level, mg/100 ml VLDL-CS ([4]; blood serum, TG/5, oral 8 days 30 mg/kg): 15.7 ± 1.1 p<0.05 mg/100 ml
Cholesterol level, mg/100 ml LDL-CS ([4]; blood serum, calculated by formula, oral 8 days 30 mg/kg): 20.1 ± 1.1 p<0.01 mg/100 ml
Cholesterol level, mg/100 ml HDL-CS [4, 7]: 54.8 ± 2.5 mg/100 ml
Cholesterol level, mg/100 ml total-CS [4, 7]: 90.9 ± 3.4 mg/100 ml
TG level, mg/100ml [4, 7]: 78.0 ± 6.2 p<0.05 mg/100ml
ALT, nM/dl [4, 8]: 622 ± 36 nM/dl
AST, nM/dl [4, 8]: 531 ± 22 nM/dl
Lipid composition (in percent of total lipids) FCS ([4]; liver, oral 8 days 30 mg/kg): 15.0 ± 0.4 p<0.01% of total lipids
Lipid composition (in percent of total lipids) Phospholipids ([4]; liver, oral 8 days 30 mg/kg): 19.7 ± 1.1% of total lipids
Lipid composition (in percent of total lipids) Triglycerides ([4]; liver, oral 8 days 30 mg/kg): 44.1 ± 1.9% of total lipids
Hepatic MDA, nM/l ([4]; 30.0 mg/kg): 4.17 ± 0.31 p<0.001 nM/l
Serum MDA, nM/l ([4]; 30.0 mg/kg): 5.58 ± 0.15 nM/l

O=C(O)CCCC(=O)NCCc1c[nH]c2ccc(OCc3ccccc3)cc12 [XIV, N-GLUTARYL-O-BENZYLSEROTONIN]
Growth inhibition percent [5]: 68%
Tumor volume (mm^3) [5]: 779 ± 94** mm^3

O=C(O)CCCC(=O)NCCN1CCOCC1 [XIX, N-GLUTARYL-4-(2-AMINOETHYL)MORPHOLINE]
Growth inhibition percent [5]: 28%
Tumor volume (mm^3) [5]: 994 ± 173 mm^3
Chemiluminiscence intensity (mV) + σn-1 ([6]; 1 µM, control of the series as in the table): 49089 ± 269 mV
relative effect: I+/I- ([6]; 0.01 mM): 0.77
Chemiluminiscence intensity (mV) + σn-1 ([6]; 0.01 mM, control of the series as in the table): 3846 ± 184 mV
relative effect: I+/I- ([6]; 0.1 mM): 0.68
Chemiluminiscence intensity (mV) + σn-1 ([6]; 0.1 mM, control of the series as in the table): 3377 ± 222 mV
relative effect: I+/I- ([6]; 1 mM): 0.13
Chemiluminiscence intensity (mV) + σn-1 ([6]; 1 mM, control of the series 7839 ± 171, 1120 ± 163, 4974 ± 283 or 1332 ± 172): 626 ± 56 mV
